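These data come from cells grown in 96-well plates and exposed to compound for 48 hours at five concentrations. The concentration for 50% growth inhibition is given as GI50.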 Calls of active or inactive are those of the source. No stated cut-off is given here; in the data, active = GI50 up to about 1.1 µM and inactive = higher.
Tests used:
Test in all cases: growth of human tumour cells (NCI), 48 h
[1] = test system: HCC 2998
[2] = test system: RPMI-8226
[3] = test system: UACC-62
[4] = test system: HOP-92
[5] = test system: NCI-H460
[6] = test system: SK-OV-3
[7] = test system: U-251
[8] = test system: SK-MEL-2
[9] = test system: CCRF-CEM
[10] = test system: NCI-H226
[11] = test system: UO-31
[12] = test system: ACHN
[13] = test system: HL-60
[14] = test system: COLO 205
[15] = test system: A549
[16] = test system: SNB-19
[17] = test system: SF-295
[18] = test system: HCT-116
[19] = test system: HCT-15
[20] = test system: HT-29

Cc1nc(Nc2ccccc2)sc1C(=O)NNC(N)=O
GI50 [1]: > 100 µM (inactive) | GI50 [2]: > 100 µM (inactive) | GI50 [3]: > 100 µM (inactive) | GI50 [4]: 64.4 µM (inactive) | GI50 [5]: > 100 µM (inactive) | GI50 [6]: > 100 µM (inactive) | GI50 [7]: 99.3 µM (inactive) | GI50 [8]: > 100 µM (inactive) | GI50 [9]: > 100 µM (inactive) | GI50 [10]: > 100 µM (inactive) | GI50 [11]: > 100 µM (inactive) | GI50 [12]: > 100 µM (inactive) | GI50 [13]: > 100 µM (inactive) | GI50 [14]: > 100 µM (inactive) | GI50 [15]: > 100 µM (inactive) | GI50 [16]: > 100 µM (inactive) | GI50 [17]: > 100 µM (inactive) | GI50 [18]: > 100 µM (inactive)

O=C1CCCCc2cccc(O)c21
GI50 [19]: > 100 µM | GI50 [1]: > 100 µM (inactive) | GI50 [2]: > 100 µM (inactive) | GI50 [3]: > 100 µM (inactive) | GI50 [4]: > 100 µM (inactive) | GI50 [20]: > 100 µM (inactive) | GI50 [5]: > 100 µM (inactive) | GI50 [6]: > 100 µM (inactive) | GI50 [7]: > 100 µM (inactive) | GI50 [8]: > 100 µM (inactive) | GI50 [9]: > 100 µM (inactive) | GI50 [10]: > 100 µM (inactive) | GI50 [11]: > 100 µM (inactive) | GI50 [12]: > 100 µM (inactive) | GI50 [13]: > 100 µM (inactive) | GI50 [14]: > 100 µM (inactive) | GI50 [16]: > 100 µM (inactive) | GI50 [17]: > 100 µM (inactive) | GI50 [18]: > 100 µM (inactive)

C/C(=C1/N=C(c2ccccc2)OC1=O)c1ccccc1
GI50 [19]: 99.1 µM | GI50 [1]: > 100 µM (inactive) | GI50 [2]: 23.3 µM (inactive) | GI50 [3]: > 100 µM (inactive) | GI50 [4]: > 100 µM (inactive) | GI50 [20]: > 100 µM (inactive) | GI50 [5]: > 100 µM (inactive) | GI50 [6]: > 100 µM (inactive) | GI50 [7]: > 100 µM (inactive) | GI50 [8]: > 100 µM (inactive) | GI50 [9]: 33.4 µM (inactive) | GI50 [10]: > 100 µM (inactive) | GI50 [12]: 74.6 µM (inactive) | GI50 [13]: 25.6 µM (inactive) | GI50 [14]: > 100 µM (inactive) | GI50 [15]: > 100 µM (inactive) | GI50 [16]: > 100 µM (inactive) | GI50 [17]: 76.2 µM (inactive) | GI50 [18]: > 100 µM (inactive)

O=C1CSC(Cc2nc3ccccc3[nH]2)=N1
GI50 [19]: 17.5 µM | GI50 [1]: 18.3 µM (inactive) | GI50 [2]: 13.7 µM (inactive) | GI50 [3]: 15.1 µM (inactive) | GI50 [4]: 29.9 µM (inactive) | GI50 [20]: 24.7 µM (inactive) | GI50 [6]: 36.1 µM (inactive) | GI50 [7]: 17.3 µM (inactive) | GI50 [8]: 16.3 µM (inactive) | GI50 [9]: 6.4 µM (inactive) | GI50 [10]: 13.9 µM (inactive) | GI50 [11]: 20.6 µM (inactive) | GI50 [12]: 5.41 µM (inactive) | GI50 [13]: 28.6 µM (inactive) | GI50 [14]: 23.5 µM (inactive) | GI50 [15]: 21.6 µM (inactive) | GI50 [16]: 21.1 µM (inactive) | GI50 [17]: 24.7 µM (inactive) | GI50 [18]: 12.9 µM (inactive)

CC(C)=CC[S+]([O-])c1ccccc1NC1=CC(=O)CC(C)(C)C1 (stereo unspecified)
GI50 [19]: 8.3 µM | GI50 [1]: > 100 µM (inactive) | GI50 [2]: > 100 µM (inactive) | GI50 [3]: > 100 µM (inactive) | GI50 [4]: > 100 µM (inactive) | GI50 [20]: > 100 µM (inactive) | GI50 [5]: > 100 µM (inactive) | GI50 [6]: > 100 µM (inactive) | GI50 [7]: 0.223 µM (active) | GI50 [8]: > 100 µM (inactive) | GI50 [9]: > 100 µM (inactive) | GI50 [10]: > 100 µM (inactive) | GI50 [11]: > 100 µM (inactive) | GI50 [12]: > 100 µM (inactive) | GI50 [13]: > 100 µM (inactive) | GI50 [14]: > 100 µM (inactive) | GI50 [15]: > 100 µM (inactive) | GI50 [16]: > 100 µM (inactive) | GI50 [18]: > 100 µM (inactive)

O=c1oc2ccc(Cl)cc2cc1-c1cn2cc(Cl)ccc2n1
GI50 [19]: 2.36 µM | GI50 [1]: > 73.6 µM (inactive) | GI50 [2]: > 100 µM (inactive) | GI50 [3]: 0.574 µM (active) | GI50 [4]: > 100 µM (inactive) | GI50 [20]: > 24.3 µM (inactive) | GI50 [5]: 14.4 µM (inactive) | GI50 [6]: > 100 µM (inactive) | GI50 [7]: > 49.3 µM (inactive) | GI50 [8]: > 100 µM (inactive) | GI50 [9]: > 28.8 µM (inactive) | GI50 [10]: > 100 µM (inactive) | GI50 [11]: > 44 µM (inactive) | GI50 [12]: > 100 µM (inactive) | GI50 [13]: 3.4 µM (inactive) | GI50 [14]: > 100 µM (inactive) | GI50 [15]: 14.1 µM (inactive) | GI50 [17]: 10.1 µM (inactive) | GI50 [18]: 6.3 µM (inactive)

CCCCC#C[I+]c1ccccc1
GI50 [19]: 8.28 µM | GI50 [1]: 20.1 µM (inactive) | GI50 [3]: 17 µM (inactive) | GI50 [4]: 11.7 µM (inactive) | GI50 [20]: 15.9 µM (inactive) | GI50 [5]: 11.3 µM (inactive) | GI50 [6]: 16.4 µM (inactive) | GI50 [7]: 16.2 µM (inactive) | GI50 [8]: 17.7 µM (inactive) | GI50 [9]: 4.97 µM (inactive) | GI50 [10]: 15.5 µM (inactive) | GI50 [11]: 16.4 µM (inactive) | GI50 [12]: 17.2 µM (inactive) | GI50 [13]: 15.4 µM (inactive) | GI50 [14]: 15.4 µM (inactive) | GI50 [15]: 17.8 µM (inactive) | GI50 [16]: 16.9 µM (inactive) | GI50 [17]: 22.4 µM (inactive) | GI50 [18]: 16 µM (inactive)

CC(=O)OC(C)c1cc2c(s1)C(=O)c1sccc1C2=O (stereo unspecified)
GI50 [19]: 0.902 µM | GI50 [1]: 1.99 µM (inactive) | GI50 [2]: 0.951 µM (active) | GI50 [4]: 3.51 µM (inactive) | GI50 [20]: 1.96 µM (inactive) | GI50 [5]: 1.06 µM (active) | GI50 [6]: 2.95 µM (inactive) | GI50 [7]: 0.944 µM (active) | GI50 [8]: 0.504 µM (active) | GI50 [9]: 2.76 µM (inactive) | GI50 [10]: 2.04 µM (inactive) | GI50 [11]: 1.55 µM (inactive) | GI50 [12]: 1.45 µM (inactive) | GI50 [13]: 1.74 µM (inactive) | GI50 [14]: 1.89 µM (inactive) | GI50 [15]: 1.17 µM (inactive) | GI50 [16]: 1.29 µM (inactive) | GI50 [17]: 0.851 µM (active) | GI50 [18]: 1.46 µM (inactive)
